Consider 30 molecules from patent publication US20110230476A1, “PI3 KINASE INHIBITORS AND USES THEREOF” (AVILA THERAPEUTICS, INC., priority 2009, published 2011).

For the test, the target named is T1, PI3Kα (p110α/p85α) (Homo sapiens, UniProt P42336).
T1 construct: purchased BPS Bioscience (San Diego, Calif.) or Millipore (Billerica, Mass.)
T1 sequence (P42336 whole entry): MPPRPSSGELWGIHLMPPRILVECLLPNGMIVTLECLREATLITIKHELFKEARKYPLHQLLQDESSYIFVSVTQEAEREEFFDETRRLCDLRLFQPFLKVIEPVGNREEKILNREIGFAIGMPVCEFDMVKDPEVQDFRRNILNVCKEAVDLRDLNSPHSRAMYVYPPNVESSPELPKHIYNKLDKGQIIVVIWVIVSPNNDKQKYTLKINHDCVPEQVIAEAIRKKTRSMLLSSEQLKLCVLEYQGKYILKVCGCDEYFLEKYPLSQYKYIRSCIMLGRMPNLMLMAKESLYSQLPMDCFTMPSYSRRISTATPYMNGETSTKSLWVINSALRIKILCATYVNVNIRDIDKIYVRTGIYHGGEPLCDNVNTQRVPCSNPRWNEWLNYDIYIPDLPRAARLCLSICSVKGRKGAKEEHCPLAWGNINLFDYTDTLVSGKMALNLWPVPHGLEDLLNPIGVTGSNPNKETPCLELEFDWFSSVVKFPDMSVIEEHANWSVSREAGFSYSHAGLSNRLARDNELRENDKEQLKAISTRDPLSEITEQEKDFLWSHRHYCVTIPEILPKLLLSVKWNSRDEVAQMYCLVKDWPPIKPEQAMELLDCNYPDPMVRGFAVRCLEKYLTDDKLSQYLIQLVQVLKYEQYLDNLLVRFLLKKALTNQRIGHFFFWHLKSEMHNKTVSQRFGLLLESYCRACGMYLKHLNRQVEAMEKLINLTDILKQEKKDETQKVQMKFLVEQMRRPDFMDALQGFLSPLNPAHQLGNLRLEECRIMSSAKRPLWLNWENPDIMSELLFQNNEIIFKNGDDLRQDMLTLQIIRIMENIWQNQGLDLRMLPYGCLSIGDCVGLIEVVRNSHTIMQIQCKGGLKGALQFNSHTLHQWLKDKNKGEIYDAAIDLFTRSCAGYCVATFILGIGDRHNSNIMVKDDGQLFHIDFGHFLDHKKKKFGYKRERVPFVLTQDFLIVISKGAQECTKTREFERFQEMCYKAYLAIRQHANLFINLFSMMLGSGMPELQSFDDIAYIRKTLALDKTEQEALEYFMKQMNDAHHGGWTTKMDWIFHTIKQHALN
T1 sequence (P27986 whole entry partner): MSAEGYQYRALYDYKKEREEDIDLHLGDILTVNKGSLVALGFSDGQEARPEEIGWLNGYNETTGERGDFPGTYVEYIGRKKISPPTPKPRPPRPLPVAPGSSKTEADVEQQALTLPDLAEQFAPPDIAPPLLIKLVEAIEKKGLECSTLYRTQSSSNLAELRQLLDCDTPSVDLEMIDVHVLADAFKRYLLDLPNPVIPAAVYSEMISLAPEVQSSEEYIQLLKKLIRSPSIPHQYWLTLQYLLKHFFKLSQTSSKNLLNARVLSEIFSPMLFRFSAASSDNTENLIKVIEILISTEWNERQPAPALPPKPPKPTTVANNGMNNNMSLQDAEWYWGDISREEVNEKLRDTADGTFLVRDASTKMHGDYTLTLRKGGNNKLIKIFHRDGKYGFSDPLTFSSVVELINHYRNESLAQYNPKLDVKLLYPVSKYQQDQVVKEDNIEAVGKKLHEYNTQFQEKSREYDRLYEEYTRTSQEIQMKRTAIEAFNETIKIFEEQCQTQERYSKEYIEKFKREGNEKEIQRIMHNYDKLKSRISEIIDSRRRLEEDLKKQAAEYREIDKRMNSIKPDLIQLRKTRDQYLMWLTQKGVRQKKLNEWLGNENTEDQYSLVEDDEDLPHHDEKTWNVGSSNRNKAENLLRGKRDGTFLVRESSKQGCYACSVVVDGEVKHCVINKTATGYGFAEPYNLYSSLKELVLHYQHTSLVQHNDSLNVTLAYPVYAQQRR
The test can be described thus: HTRF assay, potency against active PI3Kα. The format is biochemical. Particulars: HTRF; [ATP]=50 μM, [di-C8-PIP2]=10 μM; 30 min pre-incubation; read-out: PI3Kα Inhibition. The protocol: Homogeneous Time Resolved Fluorescence (HTRF) Assay Protocol for Potency Assessment Against the Active Forms of PI3Kα, PI3Kβ, and PI3Kγ
The mechanics of the assay platform are best described by the vendor (Millipore, Billerica, Mass.) on their website at the following URL: www.millipore.com/coa/tech1/74jt4z.
Briefly, Stop solution (Stop A, #33-007 and Stop B, #33-009; 3:1 ratio) and Detection Mix (from DMC, #33-015 with DMA, #33-011 and DMB, #33-013; 18:1:1 ratio) were prepared as recommended by the manufacturer about 2 hrs prior to use. […] Lipid kinase reactions were started with the addition of 5 μL of ATP solution, mixed for 15 sec on a rotary plate shaker and incubated for 30-60 minutes at 25° C. Next, reactions were stopped with a 5 μL addition of Stop solution immediately followed by a 5 μL volume of Detection Mix. […] At the conclusion of each assay, the HTRF ratio from fluorescence emission values for each well was calculated and % Inhibition determined from averaged controls wells (+/−PI3K enzyme). % Inhibition values for each compound were then plotted against inhibitor concentration to estimate IC50 from log [Inhibitor] vs Response, Variable Slope model in GraphPad Prism from GraphPad Software (San Diego, Calif.).
Background: Time-resolved FRET reads energy transfer from a long-lived donor to a nearby acceptor.
Take `O=C(C=C1COC1)CCC(=O)N1CCN(Cc2cc3nc(-c4cccc5[nH]ncc45)nc(N4CCOCC4)c3s2)CC1` [II-a-113, 1-(4-((2-(1H-indazol-4-yl)-4-morpholinothieno[3,2-d]pyrimidin-6-yl)methyl)piperazin-1-yl)-5-(oxetan-3-ylidene)pentane-1,4-dione]: the IC50 was > 1000 nM.

As for `C/C=C/C(=O)CCCC(=O)N1CCc2ccc(-c3ccnc4ccc(/C=C5\SC(=O)NC5=O)cc34)cc2C1` [V-17, (Z)-5-((4-(2-((E)-5-oxooct-6-enoyl)-1,2,3,4-tetrahydroisoquinolin-7-yl)quinolin-6-yl)methylene)thiazolidine-2,4-dione], the IC50 was 10 to 100 nM.

For the molecule `CC(C)=CC(=O)CCCCC#Cc1cc(-c2cccc3[nH]ncc23)nc(N2CCOCC2)c1` [XII-7, 10-(2-(1H-indazol-4-yl)-6-morpholinopyridin-4-yl)-2-methyldec-2-en-9-yn-4-one], the IC50 is > 1000 nM.

As for `C=CC(=O)N1CCC(O)(C#Cc2cc3nc(-c4cccc(O)c4)nc(N4CCOCC4)c3s2)CC1` [II-a-69, 1-(4-hydroxy-4-((2-(3-hydroxyphenyl)-4-morpholinothieno[3,2-d]pyrimidin-6-yl)ethynyl)piperidin-1-yl)prop-2-en-1-one], the IC50 fell in the range of 10 to 100 nM.

In the case of `CCC(=O)N(C)CC(=O)N1CCC(n2nc(-c3ccc(OC)c(OC)c3)c3c(N)ncnc32)CC1` [XI^R-2, N-(2-(4-(4-amino-3-(3,4-dimethoxyphenyl)-1H-pyrazolo[3,4-d]pyrimidin-1-yl)piperidin-1-yl)-2-oxoethyl)-N-methylpropionamide], the IC50 is > 1000 nM.

`C/C=C/C(=O)CCC(=O)N1CCC(n2nc(-c3ccc(OC)c(OC)c3)c3c(N)ncnc32)CC1` [XI-1, (E)-1-(4-(4-amino-3-(3,4-dimethoxyphenyl)-1H-pyrazolo[3,4-d]pyrimidin-1-yl)piperidin-1-yl)hept-5-ene-1,4-dione]: the IC50 was > 1000 nM.

For the molecule `C/C=C/C(=O)CCCC(=O)Nc1ccc2c(c1)N(c1nc3c(s1)C(=O)NC(C)(C)C3)CCO2` [VI-24, (E)-N-(4-(6,6-dimethyl-4-oxo-4,5,6,7-tetrahydrothiazolo[5,4-c]pyridin-2-yl)-3,4-dihydro-2H-benzo[b][1,4]oxazin-6-yl)-5-oxooct-6-enamide], the IC50 is > 1000 nM.

For the molecule `C=CC(=O)N1CCC(O)(C#Cc2cc3nc(-c4cccc5[nH]ncc45)nc(N4CCOCC4)c3s2)CC1` [II-a-101, 1-(4-((2-(1H-indazol-4-yl)-4-morpholinothieno[3,2-d]pyrimidin-6-yl)ethynyl)-4-hydroxypiperidin-1-yl)prop-2-en-1-one], the IC50 fell in the range of 100 to 1000 nM.

In the case of `C/C=C/C(=O)CCCC(=O)NCC(=O)N1CC=C(c2cc3nc(-c4cccc5[nH]ncc45)nc(N4CCOCC4)c3s2)CC1` [II-a-61, (E)-N-(2-(4-(2-(1H-indazol-4-yl)-4-morpholinothieno[3,2-d]pyrimidin-6-yl)-5,6-dihydropyridin-1(2H)-yl)-2-oxoethyl)-5-oxooct-6-enamide], the IC50 was < 10 nM.

`C/C=C/C(=O)CCC(=O)N1CCN(Cc2cc3nc(-c4ccnc5[nH]ccc45)nc(N4CCOCC4)c3s2)CC1` [II-a-114, (E)-1-(4-((4-morpholino-2-(1H-pyrrolo[2,3-b]pyridin-4-yl)thieno[3,2-d]pyrimidin-6-yl)methyl)piperazin-1-yl)hept-5-ene-1,4-dione]: the IC50 was in the range of 100 to 1000 nM.

As for `COc1c(OCCNC(=O)CCCC(=O)/C=C/c2ccccc2)ccc2c1N=C(NC(=O)c1cccnc1)N1CCN=C21` [IX-4, (E)-N-(7-methoxy-8-(2-(5-oxo-7-phenylhept-6-enamido)ethoxy)-2,3-dihydroimidazo[1,2-c]quinazolin-5-yl)nicotinamide], the IC50 is 100 to 1000 nM.

Regarding `CCCC(=O)CCC(=O)N1CCC(n2nc(-c3ccc(OC)c(OC)c3)c3c(N)ncnc32)CC1` [XI^R-1, 1-(4-(4-amino-3-(3,4-dimethoxyphenyl)-1H-pyrazolo[3,4-d]pyrimidin-1-yl)piperidin-1-yl)heptane-1,4-dione], the IC50 was > 1000 nM.

`C=CC(=O)N[C@H]1CCC[C@@H](C(=O)N2CCN(Cc3cc4nc(-c5cccc6[nH]ncc56)nc(N5CCOCC5)c4s3)CC2)C1` [II-a-98]: the IC50 fell in the range of 100 to 1000 nM.

As for `C=CC(=O)NCCC(=O)N1CC=C(c2cc3nc(-c4cccc5[nH]ncc45)nc(N4CCOCC4)c3s2)CC1` [II-a-95, N-(3-(4-(2-(1H-indazol-4-yl)-4-morpholinothieno[3,2-d]pyrimidin-6-yl)-5,6-dihydropyridin-1(2H)-yl)-3-oxopropyl)acrylamide], the IC50 is > 1000 nM.

With `C=CC(=O)NCC(=O)N1CCC(O)(c2cc3nc(-c4cccc5[nH]ncc45)nc(N4CCOCC4)c3s2)CC1` [II-a-134, N-(2-(4-(2-(1H-indazol-4-yl)-4-morpholinothieno[3,2-d]pyrimidin-6-yl)-4-hydroxypiperidin-1-yl)-2-oxoethyl)acrylamide], the IC50 fell in the range of 100 to 1000 nM.

With `C=CC(=O)NCCCC(=O)N1CCN(Cc2cc3nc(-c4cccc5[nH]ncc45)nc(N4CCOCC4)c3s2)CC1` [II-a-20, N-(4-(4-((2-(1H-indazol-4-yl)-4-morpholinothieno[3,2-d]pyrimidin-6-yl)methyl)piperazin-1-yl)-4-oxobutyl)acrylamide], the IC50 lay within 100 to 1000 nM.

As to `C/C=C/C(=O)CCC(=O)N1CCN(c2ccc(-c3ccnc4ccc(/C=C5\SC(=O)NC5=O)cc34)cc2)CC1` [V-15, (Z)-5-((4-(4-(4-((E)-4-oxohept-5-enoyl)piperazin-1-yl)phenyl)quinolin-6-yl)methylene)thiazolidine-2,4-dione], the IC50 lay within 10 to 100 nM.

On to `CC(C)=CC(=O)C(=O)N1CCN(C2CCN(c3cc(-c4cnc(N)nc4)nc(N4CCOCC4)c3)CC2)CC1` [XII-35, 1-(4-(1-(2-(2-aminopyrimidin-5-yl)-6-morpholinopyridin-4-yl)piperidin-4-yl)piperazin-1-yl)-4-methylpent-3-ene-1,2-dione], for which the IC50 fell in the range of 100 to 1000 nM.

As to `C=CC(=O)Nc1ccc(CN2CCC(n3ncc4c(N5CCOCC5)nc(-c5ccc(NC(=O)NC)cc5)nc43)CC2)cc1` [VII-5, N-(4-((4-(6-(4-(3-methylureido)phenyl)-4-morpholino-1H-pyrazolo[3,4-d]pyrimidin-1-yl)piperidin-1-yl)methyl)phenyl)acrylamide], the IC50 was in the range of 100 to 1000 nM.

For the molecule `C=CC(=O)N1CCN(c2ccc(-c3ccnc4ccc(/C=C5\SC(=O)NC5=O)cc34)cc2)CC1` [V-11, (Z)-5-((4-(4-(4-acryloylpiperazin-1-yl)phenyl)quinolin-6-yl)methylene)thiazolidine-2,4-dione], the IC50 was in the range of 10 to 100 nM.

In the case of `CC(C)=CC(=O)C1(C(=O)N2CCC3(CC2)CN(c2cc(-c4cnc(N)nc4)nc(N4CCOCC4)c2)C3)CC1` [XII-38, 1-(1-(2-(2-(2-aminopyrimidin-5-yl)-6-morpholinopyridin-4-yl)-2,7-diazaspiro[3.5]nonane-7-carbonyl)cyclopropyl)-3-methylbut-2-en-1-one], the IC50 lay in the range of 100 to 1000 nM.

For `CC(C)=CC(=O)CCc1ccc(C#Cc2cc(-c3cnc(N)nc3)nc(N3CCOCC3)c2)cc1` [XII-21, 1-(4-((2-(2-aminopyrimidin-5-yl)-6-morpholinopyridin-4-yl)ethynyl)phenyl)-5-methylhex-4-en-3-one], the IC50 was > 1000 nM.

`C/C=C/C(=O)CCCC(=O)NCC(=O)Nc1ccc2c(c1)N(c1nc3c(s1)C(=O)NC(C)(C)C3)CCO2` [VI-25]: the IC50 is > 1000 nM.

As to `CC(C)=CC(=O)CCCC(=O)N1CC2(CCN(c3cc(-c4cnc(N)nc4)nc(N4CCOCC4)c3)CC2)C1` [XII-44, 1-(7-(2-(2-aminopyrimidin-5-yl)-6-morpholinopyridin-4-yl)-2,7-diazaspiro[3.5]nonan-2-yl)-7-methyloct-6-ene-1,5-dione], the IC50 was > 1000 nM.

Consider `C=CC(=O)NOCC(=O)N1CCN(Cc2cc3nc(-c4cccc5[nH]ncc45)nc(N4CCOCC4)c3s2)CC1` [II-a-147, N-(2-(4-((2-(1H-indazol-4-yl)-4-morpholinothieno[3,2-d]pyrimidin-6-yl)methyl)piperazin-1-yl)-2-oxoethoxy)acrylamide], for which the IC50 was in the range of 100 to 1000 nM.

For `C/C=C/C(=O)CCCC(=O)N1CC=C(c2cc3nc(-c4cccc5[nH]ncc45)nc(N4CCOCC4)c3s2)CC1` [II-a-60, (E)-1-(4-(2-(1H-indazol-4-yl)-4-morpholinothieno[3,2-d]pyrimidin-6-yl)-5,6-dihydropyridin-1(2H)-yl)oct-6-ene-1,5-dione], the IC50 is 10 to 100 nM.

With `C/C=C/C(=O)CCCC(=O)N1CCN(c2ccc(-c3ccnc4ccc(/C=C5\SC(=O)NC5=O)cc34)cn2)CC1` [V-14, (Z)-5-((4-(6-(4-((E)-5-oxooct-6-enoyl)piperazin-1-yl)pyridin-3-yl)quinolin-6-yl)methylene)thiazolidine-2,4-dione], the IC50 was < 10 nM.

In the case of `CC(C)=CC(=O)CCCCC#Cc1cc(-c2cnc(N)nc2)nc(N2CCOCC2)c1` [XII-6, 10-(2-(2-aminopyrimidin-5-yl)-6-morpholinopyridin-4-yl)-2-methyldec-2-en-9-yn-4-one], the IC50 lay within 100 to 1000 nM.

Turning to `COc1ccc(-c2nn(C3CCN(C(=O)CCCC(=O)/C=C/c4ccccc4)CC3)c3ncnc(N)c23)cc1OC` [XI-5], the IC50 is > 1000 nM.

As to `C=CC(=O)NCc1ccc(OC)c(-n2c(CSc3ncnc4[nH]cnc34)nc3cccc(Cl)c3c2=O)c1` [I-5, N-(3-(2-((9H-purin-6-ylthio)methyl)-5-chloro-4-oxoquinazolin-3(4H)-yl)-4-methoxybenzyl)acrylamide], the IC50 was > 1000 nM.
